Where no end group is shown, it is not given here.
How the values were obtained:
[1] = biological target: T1, bacteriophage λ Integrase (Int) (Escherichia phage lambda, UniProt P03700); assay: Int-mediated straight-L recombination; assay type: biochemical
T1 sequence (P03700 1-356): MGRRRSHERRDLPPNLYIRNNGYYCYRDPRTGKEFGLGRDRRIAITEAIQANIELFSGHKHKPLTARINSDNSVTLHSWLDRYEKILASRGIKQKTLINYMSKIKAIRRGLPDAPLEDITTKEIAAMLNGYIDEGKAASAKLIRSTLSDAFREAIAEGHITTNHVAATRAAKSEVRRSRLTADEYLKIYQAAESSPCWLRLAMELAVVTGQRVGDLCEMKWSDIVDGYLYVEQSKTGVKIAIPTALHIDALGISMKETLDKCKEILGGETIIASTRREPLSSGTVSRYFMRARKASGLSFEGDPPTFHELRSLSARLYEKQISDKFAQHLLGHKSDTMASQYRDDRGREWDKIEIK
Protocol: (§1) FIG. 11 depicts effect of peptide KWWCRW (diamonds) and peptide KWWWRW (squares) on the remaining 3 pathways of Int-mediated recombination. Recombination extents were normalized to the amount of recombination in untreated reactions and expressed as relative % recombination. A. Effect of peptides on integrative recombination (IC50 values for both peptides are roughly 0.2 μM). Reactions were assembled as for bent-L recombination except that they were incubated at room temperature, the substrates were a supercoiled plasmid (4.8 kb) carrying attP and ^32P labeled 91 bp PCR fragment encoding attB. […] The recombination substrates were PCR fragments encoding the attL (^32P-labeled) and attR sites. Reactions contained 50 NM Xis in addition to Int and IHF (37 nM), as well as 100 ng salmon sperm DNA, and were incubated at room temperature. C. Effect of peptides on straight-L recombination (IC50 values for peptide KWWCRW is 0.06 μM, while for peptide KWWWRW is slightly over 0.1 μM). Reactions were assembled as for bent-L recombination except that they were incubated at room temperature; the substrates were two PCR fragments, one of which was ^32P-labeled and 187 bp, the other of which was unlabeled and 496 bp.
(§2) Int Assays. […] Dried gels were visualized and quantitated using a Molecular Dynamics PhosphorImager.

[2] = biological target: T2, bacteriophage λ Integrase (Int) (Escherichia phage lambda, UniProt P03700); assay: Int-mediated integrative recombination; assay type: biochemical; settings: IC50, inhibition of integrative recombination, integration pathway
T2 sequence (P03700 1-356): T1 sequence (P03700 1-356)
T2 sequence (P0A6X7 1-99 partner): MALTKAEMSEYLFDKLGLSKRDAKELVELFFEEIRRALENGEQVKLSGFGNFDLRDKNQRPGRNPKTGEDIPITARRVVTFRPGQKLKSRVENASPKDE
T2 sequence (P0A6Y1 1-94 partner): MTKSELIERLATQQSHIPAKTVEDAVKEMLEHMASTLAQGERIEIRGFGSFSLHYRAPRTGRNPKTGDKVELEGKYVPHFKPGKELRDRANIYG
Protocol: as §1, §2

[3] = biological target: restriction enzymes with unique sites in pUC19; assay: Restriction enzyme assays, all enzymes tested; assay type: biochemical
Protocol: Restriction enzyme assays. Restriction digests were performed as specified and the products were separated on 0.8% agarose gels electrophoresed at 80-90V in 1× Tris borate EDTA buffer. Gels were photographed, scanned and quantitated using NIH Image v.1.55, as recommended in the instruction manual.

[4] = biological target: T3, vaccinia topoisomerase (Vaccinia virus, UniProt P68698); assay: Gel shift of noncovalent topoisomerase-DNA complex (60-bp duplex with CCCTT site); assay type: binding; settings: 0.72 to 1.8 μM peptide
T3 construct: made in house; host or cells: Escherichia coli BL21 infected with bacteriophage λCE6
Description: To test whether the peptide interferes with the noncovalent association of topoisomerase with the DNA, we assayed the effects of the peptides on the binding of vaccinia topoisomerase to a radiolabeled 60-bp duplex DNA containing a single central CCCTT recognition site. In contrast to the suicide substrate, for which all bound enzymes are trapped in the covalent state, only about 20% of the fully double-stranded DNA molecules that are bound will be linked covalently to the protein (Wittschieben and Shuman, 1997).

[5] = tested on: T4 topoisomerase (type II); assay: T4 topoisomerase DNA relaxation assay; assay type: biochemical, bacteriophage T4; settings: for effect on DNA relaxation: 100 μM peptide
Protocol: T4 topoisomerase assays. Reactions were performed as described (Huff and Kreuzer, 1990) using 30 or 60 ng of enzyme and 200 ng of supercoiled pUC19 per reaction. The products were electrophoresed on 0.8% agarose gels at 40V in 0.5× Tris borate EDTA buffer for about 6 hours. The gel was then stained with EtBr for viewing.

[6] = biological target: bacteriophage λ Integrase (Int) (Escherichia phage lambda, UniProt P03700); assay: Top strand cleavage of phosphorothiolate-modified attL (attLS); assay type: biochemical; settings: with Int, IHF, Xis and attR
Protocol: FIG. 18 depicts effect of peptide WKHYNY on DNA cleavage. A. Time course of resolution of excision HJs. HJs were isolated, and Int, IHF, and Xis were added in the presence or absence of peptide 52 (100 μM) and stopped at various timepoints (1, 5, 15, 30, 60, and 90 min). Absence of peptide, closed circles; presence of peptide, open squares. B. The extent of strand cleavage of attL. An attL site containing a phosphorothiolate modification at the point of top strand cleavage (attLS) was incubated with Int, IHF, and Xis, in the presence of attR and in the presence or absence of peptide WKHYNY. Absence of peptide, open squares; presence of peptides, closed diamonds.
In contrast, the peptide has little or no effect on the, rate of cleavage of the attL early intermediate under recombination conditions (FIG. 18B). We measured this by using attL substrates containing a bridging phosphorothiolate modification at the locus of top strand cleavage. This modification, developed by Burgin and Nash (1995), replaces a bridging oxygen atom in the DNA backbone with a sulfur atom. Upon cleavage, the covalent Int-DNA intermediate remains trapped because the sulfhydryl generated at the free 5′ end is a much poorer nucleophile of the phosphotyrosyl bond than the normal hydroxyl group (Burgin et al., 1995). […]

Substance	IC50 [1] [nM]	IC50 [2] [nM]	IC50 [3] [µM]	effect on formation of the noncovalent topoisomerase-DNA complex [4]	effect on DNA relaxation [5]	IC50 ([5]; supercoiled pUC19) [µM]	effect on first strand cleavage of attLS [6]
KWWWRW-NH2 [Peptide 56, KWWWRW]	> 100	~200	–	–	–	–	–
KWWCRW-NH2 [Peptide 59, KWWCRW]	60	300	~40	did not inhibit	blocked it completely	40	–
WKHYNY-NH2 [Peptide 52, WKHYNY]	–	–	–	–	no effect	–	no influence on the kinetics or the amount of cleavage
